Earlier results in patent publication US8183227B1, “Compositions, kits and methods for nutrition supplementation” (Chemo S. A. France, priority 2011, dated 2012).

Conditions: intake of about 1000 IU per day, all adults

C=C1CC[C@H](O)C/C1=C/C=C1\CCC[C@]2(C)[C@@H]([C@H](C)CCCC(C)C)CC[C@@H]12 [vitamin D3, cholecalciferol]
share of the population brought up to the 30 ng/ml serum range for 25-hydroxyvitamin D: at least 50 % of the population
